Assay results taken from patent publication US12616753B2, “HSP70 inhibitors and methods of using same” (THE WISTAR INSTITUTE, priority 2020, dated 2026).

What was measured:
full length human HSP70 = molecular target: T1, full length human HSP70 (Homo sapiens, UniProt P0DMV8); assay: HSP70 mediated ATPase assay (Transcreener ADP-FI); assay type: biochemical
T1 construct: Five μL of 30 nM full length human HSP70 in assay buffer
Protocol: FIGS. 1A-1D show ATPase inhibition and direct binding of a novel HSP70 inhibitor. FIG. 1A: Compounds AP-3-97 and AP-4-139B are direct inhibitors of HSP70. HSP70 mediated ATPase activity was assessed using the TRANSCREENER® ADP-FI assay. Five microliters of 30 nM purified human HSP70 in assay buffer was added to test compounds for 30 minutes, followed by addition of excess ATP. After 15 minutes, reactions were stopped and fluorescence was assessed on a plate reader. Data are normalized to percent inhibition, where 100% is the value in the absence of HSP70, and 0% is the value in the presence of HSP70. Compounds shown include PET-16 (positive control) and the novel HSP70 inhibitors AP-3-97 and AP-4-139B. VY-3-277 was used as a negative control. FIG. 1B: Compound AP-4-139B binds HSP70. Whole cell extracts (WCE) from H1299 cells were incubated with 10 μM Biotin or with a Biotin-labeled variant of AP-4-139B (Biotin-AP-4-139B) for 5 hours. Biotin-AP-4-139B containing complexes were captured using NeutrAvidin resins and separated by SDS-PAGE. The Coomassie-stained protein band of approximately 70 kDa was excised and subjected to tryptic digestion and liquid chromatography-tandem mass spectrometry, and identified to be HSP70. FIG. 1C: H1299 cells were pre-treated with 10 μM of VY-3-277, PET-16, or AP-4-139B for 1 hour prior to the addition of 10 μM Biotin-AP-4-139B for 5 hours. Biotin-AP-4-139B containing complexes were captured by NeutrAvidin resins and immunoblotted using the indicated antibodies following SDS-PAGE. Whole cell extracts (WCE) were examined for the expression of HSP70 (input) and GRP75 (input) by Western blot analysis. FIG. 1D: Compound AP-4-139B directly binds purified human HSP70. […] Data were analyzed using the evaluation software from Biacore and the resulting sensograms were exported and re-plotted in GraphPad Prism.
HSP70 mediated ATPase activity was measured using the Transcreener® ADP-FI assay (BellBrook Labs). […] After 30 minutes, fluorescence at 560/620 nm was measured using the Envision plate reader. […]

[1] = system: CRC cell lines (HT-29, LS411N, and SW620); assay: Trypan Blue exclusion viability assay, CRC cell lines; assay type: cell-based, human; conditions: 10 μM, 48 hours
Protocol: FIGS. 4A-4F show AP-4-139B is efficacious as a single agent against human CRC in vitro and in vivo. FIG. 4A: Three CRC cell lines (HT-29, LS411N, and SW620) were treated with 10 μM of PET-16 or AP-4-139B for 48 hours. Cell were then subjected to viability assays using Trypan Blue exclusion. *** p<0.001. […] FIGS. 4B-4C: A panel of six CRC cell lines (SW620, HT-29, HCT 116+/−p53, RKO, and LS411N) were plated at a density of 1,000 cells per well in 96-well plates. The next day, cells were treated with the indicated inhibitors for 72 hours. Cells were then subjected to the Alamar Blue cell viability assays. Shown are representative IC50 values of an average of six technical replicates and two biological replicates. FIG. 4D: 2.5×10^6 HT-29 cells were injected subcutaneously into the right flank of NSG mice. Once tumors reached an approximate volume of 100 mm^3, mice were separated randomly into two groups: control vs. AP-4-139B. Mice were treated with 12.5 mg/kg AP-4-139B three times a week. All mice were euthanized 22 days after the start of treatment. Tumor volumes were recorded using digital calipers and using the formula v=length×width^2×0.52. *** p<0.001. n=10 mice per group. FIG. 4E: Immunohistochemistry (IHC) analysis of HT-29 xenograft tumors treated with AP-4-139B. […]

T1 sequence (P0DMV8 whole entry): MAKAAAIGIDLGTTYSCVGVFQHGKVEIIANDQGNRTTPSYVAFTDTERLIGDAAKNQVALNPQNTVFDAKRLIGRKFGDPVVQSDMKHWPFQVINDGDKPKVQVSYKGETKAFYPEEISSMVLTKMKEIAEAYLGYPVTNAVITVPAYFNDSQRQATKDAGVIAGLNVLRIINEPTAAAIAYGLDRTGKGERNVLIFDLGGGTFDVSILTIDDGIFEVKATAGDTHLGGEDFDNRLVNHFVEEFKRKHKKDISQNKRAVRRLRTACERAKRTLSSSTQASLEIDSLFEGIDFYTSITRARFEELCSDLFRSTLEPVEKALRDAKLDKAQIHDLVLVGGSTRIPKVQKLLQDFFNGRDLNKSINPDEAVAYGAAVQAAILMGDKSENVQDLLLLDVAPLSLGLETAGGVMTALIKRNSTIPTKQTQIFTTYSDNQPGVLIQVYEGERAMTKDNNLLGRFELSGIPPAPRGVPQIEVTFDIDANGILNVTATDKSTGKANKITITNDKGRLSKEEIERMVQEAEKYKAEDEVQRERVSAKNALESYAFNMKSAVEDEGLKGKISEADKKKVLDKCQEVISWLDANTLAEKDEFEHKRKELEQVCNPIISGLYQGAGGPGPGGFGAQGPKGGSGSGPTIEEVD

| Compound | inhibition of HSP70 ATPase activity (in words) (full length human HSP70) | decrease of CRC cell viability [1] | IC50 (full length human HSP70) [µM] |
| --- | --- | --- | --- |
| c1ccc(-c2cn3nc(CCCCCC[P+](c4ccccc4)(c4ccccc4)c4ccccc4)sc3n2)cc1 [AP-4-139B, Triphenyl(6-(6-phenylimidazo[2,1-b][1,3,4]thiadiazol-2-yl)hexyl)phosphonium bromide] | markedly superior potency | markedly more cytotoxic | – |
| C(#C[P+](c1ccccc1)(c1ccccc1)c1ccccc1)c1ccccc1 [PET-16, Triphenyl(phenylethynyl)phosphonium bromide, reference compound] | – | modest ability to decrease CRC cell viability | ~3 |
